Measurements taken from patent US20250215071A1, “Novel Mcl-1 inhibitor and combination of Mcl-1 and a BH3 mimetic, such as a Bcl-2 inhibitor” (NETRIS PHARMA, priority 2022, published 2025).

Key:
[1] = tested on: caspase-3; assay: UNC5B-induced caspase-3 activity in HeLa UNC5B cells; assay type: cell-based, Human; conditions: doxycycline 2 μg/mL; 18 hours
Experimental: Stable Hela cells inducible for UNC5B (HeLa UNC5B) were treated with doxycycline (Dox) at 2 μg/mL, in combination with the indicated doses of the proteasome inhibitors MG132 and bortezomib (BTZ).
Caspase-3 and -9 activity assays were performed as described previously (Paradisi et al., 2013; Paradisi et al., 2009). Briefly, HCT116 and HeLa cells were seeded and treated as for DNA fragmentation assay. Cells were then collected and caspase-3/caspase 9 activity assays were performed using the Caspase-3/Caspase-9 Fluorometric Assay Kit (BioVision, Milpitas, CA, USA), according to the manufacturer's instructions. Caspase activity (activity/min/mg of protein) was calculated from a 1 h kinetic cycle reading on a spectrofluorometer (405 nm/510 nm, Infinite F500, Tecan, Männedorf, Switzerland).

[2] = tested on: HeLa UNC5B cells; assay: UNC5B-induced DNA fragmentation in HeLa UNC5B cells; assay type: cell-based, Human; conditions: doxycycline-induced UNC5B; 18 hours
Experimental: FIG. 2. CRISPR-Cas9 screening identifies genes and molecular pathways involved in UNC5B-induced cell death. Related to FIG. 1. (A): UNC5B induction upon treatment with doxycycline. Stable HCT116 cells, inducible for UNC5B, were treated with the indicated concentrations of doxycycline (Dox). 24 hours later, protein levels of FLAG-UNC5B and GAPDH, used as housekeeping gene, were assessed by western blot. (B): UNC5B induction upon treatment with doxycycline on Hela cells. Stable Hela cells inducible for UNC5B (HeLa UNC5B) were treated with the indicated doses of Dox for 18 hours. Protein levels of His-UNC5B and β-actin, used as housekeeping gene, were measured by western blot. (C,D,E): Induction of UNC5B triggers apoptotic cell death in HCT116 cells. Stable HCTT16 cells inducible for human UNC5B were treated with Dox. To assess cell death, propidium iodide (PI) incorporation was followed in real-time up to 36 hours, using an Incucyte Zoom technology (n=3, ** p<0.01, Kolmogorov Smirnov test) (C). Apoptosis was assessed 18 hours after Dox treatment by DNA fragmentation through flow cytometry ([…] (D) and by caspase-3 activity (E), quantified by fluorometric detection kit (n=3, *p<0.05, ** p<0.01, *** p<0.001, Ordinary two-way ANOVA). Values are given as means±SEM. (F): Caspase inhibition rescues apoptosis triggered by UNC5B. HeLa UNC5B cells were treated with Dox and the pan-caspase inhibitor […] (QVD). 18 hours later, DNA fragmentation was evaluated by flow cytometry (n=3, **** p<0.0001, ordinary two-way ANOVA with Šidák's multiple comparisons test). Values are given as means±SEM. […] The number of guides showing an increase in reads compared to control condition is shown for each gene.
FIG. 4. […] 18 hours after treatment, apoptosis was measured by DNA fragmentation (A) and caspase-3 activity (B) (n=3-4, **** p<0.0001, ordinary two-way ANOVA with Tukey's multiple comparisons test). […] Protein levels of Mcl-1, Bcl-2 and Bcl-XL, as well as of UNC5B and B-actin, used as housekeeping gene, were evaluated by western blot. […]

Which “UNC5B-induced caspase-3 activation” value [1] does the source give for CC(C)C[C@H](NC(=O)[C@H](Cc1ccccc1)NC(=O)c1cnccn1)B(O)O [bortezomib] here?
Its value is “suppressed”.

What about the “UNC5B-induced apoptosis (DNA fragmentation)” value [2] of the same molecule?
The value was “suppressed”.
